According to patent publication US10736908B2, “Antiviral aryl-amide phosphodiamide compounds” (Merck Sharp & Dohme Corp., priority 2016, dated 2020):
Read-outs that look alike come from different tables or passages of the source.

Tested on: HIV-1 (H9/IIIB strain)
Assay: Multiple round HIV-1 infection assay (Viking assay) in MT4-GFP cells
Format: cell-based
Conditions: HIV-1 replication in MT4-GFP cells
Procedure: Assessing Antiviral Potency in a Multiple Round HIV-1 Infection Assay (Viking Assay)
The antiviral activity of the tenofovir prodrugs of the Examples herein was assessed in an assay that measures the rate of replication of HIV in cell culture, termed the Viking assay (VIral KINetics in Green cells) and performed as follows. HIV-1 replication was monitored using MT4-gag-GFP clone D3 (hereafter designated MT4-GFP), which are MT-4 cells modified to harbor a GFP reporter gene, the expression of which is dependent on the HIV-1 expressed proteins tat and rev. Productive infection of an MT4-GFP cell with HIV-1 results in GFP expression approximately 24 h post-infection. MT4-GFP cells were maintained at 37° C./5% CO2/90% relative humidity in RPMI 1640 supplemented with 10% fetal bovine serum, 100 U/ml penicillin/streptomycin, and 400 μg/ml G418 to maintain the reporter gene. For infections, MT4-GFP cells were placed in the same medium lacking G418 and infected overnight with HIV-1 (H9/IIIB strain) virus at an approximate multiplicity of infection of 0.01 in the same incubation conditions. […] Compound plates were prepared by dispensing compounds dissolved in DMSO into wells of 384 well poly-D-lysine-coated plates (0.2 μl/well) using an ECHO acoustic dispenser. Each compound was tested in a 10-point serial 3-fold dilution (typical final concentrations: 8.4 μM-0.42 nM). Controls included no inhibitor (DMSO only) and a combination of three antiviral agents (efavirenz, indinavir, an in-house integrase strand transfer inhibitor at final concentrations of 4 μM each). Cells were added (50 μL/well) to compound plates and the infected cells were maintained at 37° C./5% CO2/90% relative humidity.
Infected cells were quantified at two time points, ˜48 h and ˜72 h post-infection, by counting the number of green cells in each well using an Acumen eX3 scanner. The increase in the number of green cells over ˜24 h period gives the reproductive ratio, R0, which is typically 5-15 and has been shown experimentally to be in logarithmic phase (data not shown). Inhibition of R0 is calculated for each well, and IC50s determined by non-linear 4-parameter curve fitting.

[1] = Human immunodeficiency virus 1, IIIB, 50% NHS (normal human serum), read-out: Viking, IC50 (50% NHS)
[2] = Human immunodeficiency virus 1, IIIB, head prints 100% NHS (normal human serum), read-out: Viking, IC50 (100% NHS)
[3] = 50% NHS (normal human serum), read-out: Viking, IC50 (50% NHS)
[4] = head prints 100% NHS (normal human serum), read-out: Viking, IC50 (100% NHS)

Row | SMILES | IC50 [1] | IC50 [2] | IC50 [3] | IC50 [4]
1 | CCCOC(=O)C(C)(C)NP(=O)(CO[C@H](C)Cn1cnc2c(N)ncnc21)NC(=O)c1ccc(OC)cc1 (stereo partly drawn) [Example 2B, propyl 2-(((R)—((((R)-1-(6-amino-9H-purin-9-yl)propan-2-yl)oxy)methyl)(4-methoxy-benzamido)phosphoryl)amino)-2-methylpropanoate and propyl 2-(((S)—((((R)-1-(6-amino-9H-purin-9-yl)propan-2-yl)oxy)methyl(4-methoxybenzamido)phosphoryl)amino)-2-methylpropanoate] | 69.8 nM | 27.5 nM | – | –
2 | CCOCCOC(=O)C(C)(C)NP(=O)(CO[C@H](C)Cn1cnc2c(N)ncnc21)NC(=O)c1ccc(Cl)cc1 (single isomer, unassigned) [Example 8B] | – | – | 62.2 nM | 41.1 nM
3 | CCOCCOC(=O)C(C)(C)NP(=O)(CO[C@H](C)Cn1cnc2c(N)ncnc21)NC(=O)c1ccc(Cl)cc1 (single isomer, unassigned) [Example 8A] | – | 63.9 nM | 133 nM | –
4 | CCCOC(=O)C(C)(C)NP(=O)(CO[C@H](C)Cn1cnc2c(N)ncnc21)NC(=S)c1ccc(Cl)cc1 (stereo partly drawn) [Example 19, propyl 2-((((((R)-1-(6-amino-9H-purin-9-yl)propan-2-yl)oxy)methyl)(4-chlorophenylthioamido)phosphoryl)amino)-2-methylpropanoate] | 347 nM | 32.1 nM | – | –
5 | CCOCCOC(=O)C(C)(C)NP(=O)(CO[C@H](C)Cn1cnc2c(N)ncnc21)NC(=O)c1ccccc1Cl (single isomer, unassigned) [Example 12B] | – | – | 83.4 nM | 26.7 nM
6 | CCCOC(=O)C(C)(C)NP(=O)(CO[C@H](C)Cn1cnc2c(N)ncnc21)NC(=O)c1ccccc1Cl (single isomer, unassigned) [Example 21B] | 229 nM | 33.6 nM | – | –
7 | CCCOC(=O)C(C)(C)NP(=O)(CO[C@H](C)Cn1cnc2c(N)ncnc21)NC(=O)c1ccc(Cl)cc1 (single isomer, unassigned) [Example 4A] | – | – | 57.9 nM | 12 nM
8 | CC(C)OC(=O)C(C)(C)NP(=O)(CO[C@H](C)Cn1cnc2c(N)ncnc21)NC(=O)c1ccncn1 (single isomer, unassigned) [Example 13A] | – | – | 2130 nM | 854 nM
9 | C[C@H](Cn1cnc2c(N)ncnc21)OCP(=O)(NC(=O)c1ccc(Cl)cc1)NC(C)(C)C(=O)OC1CCCC1 (single isomer, unassigned) [Example 7B] | – | – | 13.5 nM | 1.92 nM
10 | CC(C)OC(=O)C(C)(C)NP(=O)(CO[C@H](C)Cn1cnc2c(N)ncnc21)NC(=S)c1ccc(Cl)cc1 (stereo partly drawn) [Example 20, isopropyl 2-((((((R)-1-(6-amino-9H-purin-9-yl)propan-2-yl)oxy)methyl)(4-chlorophenylthioamido)phosphoryl)amino)-2-methylpropanoate] | 494 nM | 118 nM | – | –
11 | CCCCCOC(=O)C(C)(C)NP(=O)(CO[C@H](C)Cn1cnc2c(N)ncnc21)NC(=O)c1ccc(F)cc1 (single isomer, unassigned) [Example 11B] | – | – | 30.8 nM | 5.7 nM
12 | CC(C)OC(=O)C(C)(C)NP(=O)(CO[C@H](C)Cn1cnc2c(N)ncnc21)NC(=O)c1ccncn1 (single isomer, unassigned) [Example 13B] | – | – | 480 nM | 164 nM
13 | CCOC(=O)C(C)(C)NP(=O)(CO[C@H](C)Cn1cnc2c(N)ncnc21)NC(=O)c1ccc(C(C)(C)C)cc1 (single isomer, unassigned) [Example 22B] | – | – | 15.7 nM | 5.8 nM
14 | CCCCCOC(=O)C(C)(C)NP(=O)(CO[C@H](C)Cn1cnc2c(N)ncnc21)NC(=O)c1ccccc1OC (single isomer, unassigned) [Example 16B] | – | – | 139 nM | 15.5 nM
15 | CCCCCOC(=O)C(C)(C)NP(=O)(CO[C@H](C)Cn1cnc2c(N)ncnc21)NC(=O)c1cccs1 (single isomer, unassigned) [Example 15B] | – | – | 29.8 nM | 8.1 nM
16 | CC(C)OC(=O)C(C)(C)NP(=O)(CO[C@H](C)Cn1cnc2c(N)ncnc21)NC(=O)c1cnccn1 (single isomer, unassigned) [Example 14B] | – | – | 314 nM | 112 nM

Row | SMILES | IC50 [1] | IC50 [2] | IC50 [3] | IC50 [4]
17 | C[C@H](Cn1cnc2c(N)ncnc21)OCP(=O)(NC(=O)c1ccc(Cl)cc1)NC(C)(C)C(=O)OC1CCC1 (single isomer, unassigned) [Example 6A] | – | – | 36.9 nM | 11.1 nM
18 | CCOCCOC(=O)C(C)(C)NP(=O)(CO[C@H](C)Cn1cnc2c(N)ncnc21)NC(=O)c1ccccc1Cl (single isomer, unassigned) [Example 12A] | 90.6 nM | 30.9 nM | – | –
19 | CC(C)OC(=O)C(C)(C)NP(=O)(CO[C@H](C)Cn1cnc2c(N)ncnc21)NC(=O)c1cnccn1 (single isomer, unassigned) [Example 14A] | – | – | 1570 nM | 284 nM
20 | CCCOC(=O)C(C)(C)NP(=O)(CO[C@H](C)Cn1cnc2c(N)ncnc21)NC(=O)c1ccc(OC)cc1 (single isomer, unassigned) [Example 2A] | 93.2 nM | 32.4 nM | – | –
21 | CCOC(=O)C(C)(C)NP(=O)(CO[C@H](C)Cn1cnc2c(N)ncnc21)NC(=O)c1ccc(C(C)(C)C)cc1 (single isomer, unassigned) [Example 22A] | – | – | 48.1 nM | 15.1 nM
22 | CC(C)COC(=O)C(C)(C)NP(=O)(CO[C@H](C)Cn1cnc2c(N)ncnc21)NC(=O)c1ccc(Cl)cc1 (single isomer, unassigned) [Example 5A] | – | – | 79.8 nM | 12.3 nM
23 | CCCCCOC(=O)C(C)(C)NP(=O)(CO[C@H](C)Cn1cnc2c(N)ncnc21)NC(=O)c1ccc(C)cc1 (single isomer, unassigned) [Example 18A] | – | – | 35.4 nM | 9 nM
24 | CC(C)COC(=O)C(C)(C)NP(=O)(CO[C@H](C)Cn1cnc2c(N)ncnc21)NC(=O)c1ccc(Cl)cc1 (single isomer, unassigned) [Example 5B] | – | – | 24.4 nM | 1.9 nM
25 | COc1ccc(C(=O)NP(=O)(CO[C@H](C)Cn2cnc3c(N)ncnc32)NC(C)(C)C(=O)OC(C)C)cc1 (single isomer, unassigned) [Example 17B] | – | – | 390 nM | 157 nM
26 | CCCCCOC(=O)C(C)(C)NP(=O)(CO[C@H](C)Cn1cnc2c(N)ncnc21)NC(=O)c1ccccc1OC (single isomer, unassigned) [Example 16A] | 153 nM | 13.3 nM | – | –
27 | C[C@H](Cn1cnc2c(N)ncnc21)OCP(=O)(NC(=O)c1ccc(Cl)cc1)NC(C)(C)C(=O)OC1CCOCC1 (single isomer, unassigned) [Example 9A] | – | – | 1440 nM | 404 nM
28 | CC(C)OC(=O)C(C)(C)NP(=O)(CO[C@H](C)Cn1cnc2c(N)ncnc21)NC(=O)c1ccc(F)cc1 (single isomer, unassigned) [Example 10A] | – | – | 264 nM | 129 nM
29 | C[C@H](Cn1cnc2c(N)ncnc21)OCP(=O)(NC(=O)c1ccc(Cl)cc1)NC(C)(C)C(=O)OC1CCCC1 (single isomer, unassigned) [Example 7A] | – | – | 31.7 nM | 8.4 nM
30 | COc1ccc(C(=O)NP(=O)(CO[C@H](C)Cn2cnc3c(N)ncnc32)NC(C)(C)C(=O)OC(C)C)cc1 (single isomer, unassigned) [Example 17A] | – | – | 54.3 nM | 18.3 nM
31 | CC(C)OC(=O)C(C)(C)NP(=O)(CO[C@H](C)Cn1cnc2c(N)ncnc21)NC(=O)c1ccc(Cl)cc1 (mixture of isomers) [Example 1A, isopropyl 2-(((R)—((((R)-1-(6-amino-9H-purin-9-yl)propan-2-yl)oxy)methyl)(4-chlorobenzamido)phosphoryl)amino)-2-methylpropanoate and isopropyl 2-(((S)—((((R)-1-(6-amino-9H-purin-9-yl)propan-2-yl)oxy)methyl)(4-chlorobenzamido)phosphoryl)amino)-2-methylpropanoate] | 286 nM | 82.4 nM | – | –
